Reference: patent US20070037752A1, “Novel alanyl-amino peptidase inhibitors for functionally influencing different cells and treating immunological, inflammatory, neuronal, and other diseases” (priority 2003, published 2007)
Where two headings read alike, the source gives them in different places.

Biological target: alanyl aminopeptidases (APN) (Homo sapiens, UniProt P15144)
Experiment: Inhibition of alanyl aminopeptidase enzymatic activity, fluorogenic substrate (Ala)2-rhodamine 110
Format: biochemical
Protocol: The inhibition characteristics measured are referred to as IC-50 values or ID50 values (the latter marked with “*”) for said enzyme. The enzymatic activity was determined by means of the fluorogenic substrate/product (Ala)2-rhodamine 110.

[1] = Table 4, unstarred values, read-out: IC50APN
[2] = Table 3, unstarred values, read-out: IC50APN
[3] = Table 9, unstarred values, read-out: IC50APN
[4] = Table 8, unstarred values, read-out: IC50APN
[5] = Table 4, starred values = ID50, read-out: ID50 APN (values marked with *)

alanyl aminopeptidases (APN), sequence (P15144 whole entry, species assumed): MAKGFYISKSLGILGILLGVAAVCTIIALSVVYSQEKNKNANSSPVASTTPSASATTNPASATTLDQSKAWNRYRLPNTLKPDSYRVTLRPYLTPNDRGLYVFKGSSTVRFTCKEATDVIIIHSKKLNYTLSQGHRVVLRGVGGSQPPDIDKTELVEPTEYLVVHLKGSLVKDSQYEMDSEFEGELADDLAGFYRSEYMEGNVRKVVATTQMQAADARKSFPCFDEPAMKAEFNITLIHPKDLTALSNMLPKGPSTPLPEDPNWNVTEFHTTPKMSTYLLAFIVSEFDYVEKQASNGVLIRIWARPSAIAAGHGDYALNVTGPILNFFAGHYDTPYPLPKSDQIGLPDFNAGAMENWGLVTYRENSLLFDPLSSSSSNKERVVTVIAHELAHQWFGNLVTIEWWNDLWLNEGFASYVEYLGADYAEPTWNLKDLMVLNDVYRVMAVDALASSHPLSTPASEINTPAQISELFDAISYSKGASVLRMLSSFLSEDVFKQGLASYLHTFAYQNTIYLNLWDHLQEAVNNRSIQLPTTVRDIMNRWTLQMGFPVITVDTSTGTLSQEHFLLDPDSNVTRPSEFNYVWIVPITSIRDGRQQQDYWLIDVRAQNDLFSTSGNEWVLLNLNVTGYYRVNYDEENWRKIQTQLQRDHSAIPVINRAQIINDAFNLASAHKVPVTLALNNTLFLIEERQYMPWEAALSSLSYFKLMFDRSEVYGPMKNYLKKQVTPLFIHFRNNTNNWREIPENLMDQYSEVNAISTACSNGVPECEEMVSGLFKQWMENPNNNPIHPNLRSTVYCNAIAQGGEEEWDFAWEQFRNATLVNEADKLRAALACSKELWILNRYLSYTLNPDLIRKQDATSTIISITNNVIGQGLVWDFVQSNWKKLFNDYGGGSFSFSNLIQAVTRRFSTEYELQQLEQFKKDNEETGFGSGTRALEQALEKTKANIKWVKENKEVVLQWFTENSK

COc1ccccc1C(=O)N/N=C/c1ccc(C)o1 [A4.110]
IC50 [1]: 34.7 µM

O=C(O)CSCC1NC(=S)N(c2ccccc2)C1=O (stereo not drawn) [A7.005]
IC50 (Table 7, read-out: IC50APN): 12 µM

O=C(N/N=C/c1ccco1)c1ccccc1O [A4.037]
IC50 [1]: 16 µM

Nc1nonc1-n1nnc(C(=O)N/N=C/c2ccco2)c1-c1ccccc1 [A3.249]
IC50 [2]: 46.6 µM

O=C(CNC(=O)c1ccccc1Br)N/N=C/c1ccoc1 [A4.101]
IC50 [1]: 31.9 µM

C/C(=N\NC(=O)c1cc(-c2ccccc2)n[nH]1)c1ccco1 [A3.278]
IC50 [2]: 58.3 µM

Clc1ccc(-n2cc3c(-c4ccco4)nnc(-c4nc5ccccc5s4)c3n2)cc1 [A9.034]
IC50 [3]: 14.3 µM

O=C1C(Cc2ccc(O)cc2)NC(=S)N1C1CCCCC1 (stereo not drawn) [A8.019]
IC50 [4]: 21.3 µM

O=C(CNC(=O)c1ccccc1F)N/N=C/c1ccc([N+](=O)[O-])o1 [A3.280]
IC50 [2]: 60 µM

O=C(CCCCCN1C(=O)c2cccc3cccc(c23)C1=O)NO [A12.028]
IC50 (Table 12, read-out: IC50APN): 14.1 µM

Cc1ccc(/C=N\NC(=O)c2cnccn2)o1 [A9.020]
IC50 [3]: 9.8 µM

O=C(Nc1ccccc1C(=O)N/N=C/c1ccco1)c1ccccc1Cl [A4.109]
IC50 [1]: 34.7 µM

C/C(=N\NC(=O)CNC(=O)/C=C/c1ccco1)c1ccc2ccccc2c1 [A4.019]
IC50 [1]: 12 µM

Cc1ccc(C(OCCC(=O)NO)c2ccc(C)cc2)cc1 [A12.029]
IC50 (Table 12, read-out: IC50APN): 14.2 µM

COc1ccc(/C(C)=N/NC(=O)CNC(=O)/C=C\c2ccco2)cc1OC [A3.102]
IC50 [2]: 19.9 µM

CCCCCCCC(=O)N/N=C/c1ccco1 [A3.264]
IC50 [2]: 50.3 µM

NC(=S)N/N=C/c1ccco1 [A8.032]
IC50 [4]: 50 µM

CC(=O)c1cccc(-c2ccc(/C=C3/C(=O)N(CCCO)C(=O)C(C#N)=C3C)o2)c1 [A12.034]
IC50 (Table 12, read-out: IC50APN): 18.2 µM

COc1cc(Br)ccc1OCC(=O)N/N=C(C)/C=C/c1ccco1 [A3.217]
IC50 [2]: 36.3 µM

CCc1cccc(CC)c1NC(=S)N/N=C1\C(=O)N(CN2CC(C)CC(C)C2)c2ccccc21 (stereo not drawn) [A3.024]
IC50 [2]: 6.6 µM

O=C(/C=C/c1ccco1)Nc1cccc(C(=O)O)c1 [A3.240]
IC50 [2]: 44.2 µM

O=C(N/C(=C\c1ccco1)C(=O)N1CCOCC1)c1ccccc1Cl [A3.154]
IC50 [2]: 25.5 µM

CCCOC(=O)c1cc(-c2ccc(/C=C3/C(=O)N(CC(C)O)C(=O)C(C#N)=C3C)o2)ccc1Cl (stereo not drawn) [A3.193]
IC50 [2]: 32 µM

O=[N+]([O-])c1ncn(CN2CCOCC2)n1 [A9.090]
IC50 [3]: 36.8 µM

O=C(N/N=C/c1cc(Br)c(O)c(Br)c1O)/C(=C\c1ccc2c(c1)OCO2)NC(=O)c1ccccc1 [A3.143]
IC50 [2]: 23.6 µM

Cn1c(=O)c2c(ncn2CC(=O)N/N=C/C=C\c2ccco2)n(C)c1=O [A8.037]
IC50 (Table 8, starred values = ID50, read-out: ID50 APN (values marked with *)): 79.8 µM

CC1(C)CC(CC/N=C/c2ccccc2)(Cc2ccccc2)CCO1 (stereo not drawn) [A9.116]
IC50 [3]: 93.6 µM

COC(=O)c1cc(-c2ccc(/C=C3\C(=O)N(CCCO)C(=O)C(C#N)=C3C)o2)ccc1Cl [A3.069]
IC50 [2]: 15.2 µM

O=C(N/N=C/c1ccco1)c1cccc(NC(=O)c2cccc(Br)c2)c1 [A3.131]
IC50 [2]: 22.4 µM

COc1ccc(CCCC(=O)N/N=C/c2ccco2)cc1 [A4.071]
IC50 [1]: 23.4 µM

COc1ccc2ccccc2c1-c1cc(C(=O)N/N=C(\C)c2ccco2)[nH]n1 [A4.121]
IC50 [1]: 38.2 µM

CCN(CC)c1ccc(/C=N/NC(=O)CNC(=O)/C=C/c2ccco2)cc1 [A4.066]
IC50 [1]: 22.8 µM

COc1ccc(C(=O)NCC(=O)N/N=C/c2ccco2)cc1OC [A4.156]
IC50 [5]: 64.9 µM

O=C(O)SCCC1NC(=S)N(c2ccccc2)C1=O (stereo not drawn) [A12.024]
IC50 (Table 12, read-out: IC50APN): 12 µM

C(=C\c1ccco1)/c1nc2ccccc2[nH]1 [A3.176]
IC50 [2]: 28.7 µM

CCCOc1ccc(/C=C(\NC(=O)c2ccccc2)C(=O)N/N=C/c2ccco2)cc1 [A4.086]
IC50 [1]: 27.3 µM

Cc1ccc(/C=N/NC(=O)c2nnn(-c3nonc3N)c2CN2CCOCC2)o1 [A4.084]
IC50 [1]: 26.7 µM

Cc1cccc(NCC(=O)N/N=C/c2cc(Br)c(O)c(O)c2Br)c1 [A4.012]
IC50 [1]: 7.8 µM

CC1=C(C#N)C(=O)N(CCCO)C(=O)/C1=C\c1ccc(-c2cc(C)c(C)cc2[N+](=O)[O-])o1 [A9.019]
IC50 [3]: 9.7 µM

Cc1cccc(C)c1NC(=S)NC(=O)c1cccs1 [A8.010]
IC50 [4]: 12.9 µM

Cc1ccc(/C=N/NC(=O)c2nnn(-c3nonc3N)c2CN2CCOCC2)o1 [A9.067]
IC50 [3]: 26.7 µM

O=C(N/N=C\c1ccco1)c1cnccn1 [A4.097]
IC50 [1]: 30.1 µM

COc1ccccc1NC(=O)/C=C\c1ccco1 [A3.276]
IC50 [2]: 56.4 µM

Cc1ccc(C(=O)N/C(=C\c2ccco2)C(=O)N2CC3CC(C2)c2cccc(=O)n2C3)cc1C (stereo not drawn) [A9.026]
IC50 [3]: 11.8 µM

O=C(Cn1cnc2ccccc21)N/N=C/c1ccco1 [A3.238]
IC50 [2]: 43.3 µM

CC(=O)N1CCOC1(C)c1ccc([N+](=O)[O-])cc1 (stereo not drawn) [A3.200]
IC50 [2]: 32.8 µM

CN(C)c1c(Cl)cc(/C(=N/O)N2CCOCC2)cc1Cl [A9.054]
IC50 [3]: 21.4 µM

O=C1c2cccc3c(Br)c([N+](=O)[O-])cc(c23)C(=O)N1c1cccc([N+](=O)[O-])c1 [A9.062]
IC50 [3]: 23.3 µM

CC(NC(=O)C(=O)N/N=C\c1cc([N+](=O)[O-])ccc1O)c1ccccc1 (stereo not drawn) [A4.018]
IC50 [1]: 11.4 µM

COc1ccc(Cl)cc1C(=O)N/C(=C/c1ccco1)C(=O)N1CC2CC(C1)c1cccc(=O)n1C2 (stereo not drawn) [A10.003]
IC50 (Table 10, read-out: IC50APN): 8.1 µM

COC(=O)CCC/C=C1/SC[C@@H](NC(=O)c2ccccc2)/C1=N/O [A2.010]
IC50 (Table 2, read-out: IC50APN): 93.6 µM

CCOC(=O)C(NC(=O)c1ccccc1)(Nc1ccc(OC)cc1OC)C(F)(F)F (stereo not drawn) [A12.036]
IC50 (Table 12, read-out: IC50APN): 19 µM

Cc1ccc(/C=N/NC(=O)c2cccc(I)c2)o1 [A3.184]
IC50 [2]: 30 µM

NNC(=O)c1ccc(NS(=O)(=O)c2cccs2)cc1 [A3.047]
IC50 [2]: 11.8 µM

Cc1ccc(C)c(NC(=O)C(=O)N/N=C/c2cc([N+](=O)[O-])ccc2O)c1 [A11.006]
IC50 (Table 11, read-out: IC50APN): 10.8 µM

O=C(N/N=C\c1ccco1)c1ccc(S(=O)(=O)N2CCCCCC2)cc1 [A10.002]
IC50 (Table 10, read-out: IC50APN): 8 µM

O=C(N/N=C/c1cccc([N+](=O)[O-])c1)c1ccco1 [A11.029]
IC50 (Table 11, read-out: IC50APN): 45.4 µM

CCn1c(/C=C/c2ccco2)nc2ccccc21 [A3.250]
IC50 [2]: 46.6 µM

N/C(=N\[N+](=O)[O-])N/N=C/c1ccco1 [A11.001]
IC50 (Table 11, read-out: IC50APN): 7.6 µM

Nc1nonc1-n1nnc(C(=O)N/N=C/c2ccco2)c1-c1ccccc1 [A2.008]
IC50 (Table 2, read-out: IC50APN): 46.6 µM

NC(=S)N/N=C/c1ccco1 [A3.261]
IC50 [2]: 50 µM

Cc1ccccc1S(=O)(=O)Nc1cccc(C(=O)N/N=C/c2ccco2)c1 [A6.009]
IC50 (Table 6, read-out: IC50APN): 19.2 µM

CCCOC(=O)C(NC(=O)c1ccc(OC)cc1)(N1CCOCC1)C(F)(F)F (stereo not drawn) [A9.115]
IC50 [3]: 90.2 µM

Cn1c(=O)c2c(nc3sccn32)n(C)c1=O [A8.013]
IC50 [4]: 14.3 µM

CCCCOC(=O)c1ccc(NC(=O)/C=C\c2ccco2)cc1 [A3.032]
IC50 [2]: 8.3 µM

O=C(N/N=C/c1cc(Cl)cc([N+](=O)[O-])c1O)c1ccccc1O [A4.005]
IC50 [1]: 5.8 µM

CC1CC(=O)N(C(=O)CCBr)c2ccc([N+](=O)[O-])cc2N1C(=O)CCBr (stereo not drawn) [A11.033]
IC50 (Table 11, read-out: IC50APN): 99.8 µM

Cn1c(=O)c2c(ncn2CC(=O)N/N=C/C=C\c2ccco2)n(C)c1=O [A9.113]
IC50 (Table 9, starred values = ID50, read-out: ID50 APN (values marked with *)): 79.8 µM

O=[N+](O)CC(c1ccccc1)P(=O)(c1ccccc1)c1ccccc1 (stereo not drawn) [A6.007]
IC50 (Table 6, read-out: IC50APN): 16.3 µM

O=C(Cc1ccc([N+](=O)[O-])cc1)N1CCOCC1 [A11.012]
IC50 (Table 11, read-out: IC50APN): 19.1 µM

O=C(CNC(=O)c1ccccc1Br)N/N=C/c1ccco1 [A4.171]
IC50 [5]: 91.2 µM

COc1cc(/C=N/NC(=O)c2cc(-c3ccco3)n[nH]2)cc(OC)c1OC [A4.043]
IC50 [1]: 17 µM
